± gives the standard deviation of the averaged measurements.
system: SKBR3; test: relative cell number vs DMSO control (72 h) (% of DMSO); higher = less growth inhibition (more cells); settings: sgRNA knockout: sgNT, 1000 nM
Protocol: (§1)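 QMAP-Seq: a pool of 5 breast cancer cell lines (ZR-75-1, SKBR3, HCC-38, MDA-MB-231, BT-20), each carrying 12 doxycycline-inducible Cas9 sgRNA perturbations (11 knockouts plus non-targeting sgNT), was treated with compounds for 72 h at four 10-fold doses (10 nM-10 uM or 1 nM-1 uM range). Barcodes were amplified and sequenced, and cell number was interpolated from 293T spike-in standard curves. The result is expressed as % of the median of DMSO wells. Two biological replicates.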

`COc1cc2nccc(Oc3ccc(NC(=O)C4(C(=O)Nc5ccc(F)cc5)CC4)cc3)c2cc1OC` [Cabozantinib] gave a relative cell number of 82.9 ± 26.

same assay, conditions: sgRNA knockout: sgNT, 10000 nM

Point of comparison: `CC(C)(C)OC(=O)CN(Cc1ccc(Cl)cc1)Cc1ccc([N+](=O)[O-])s1` [GSK4112], relative cell number 117 ± 11. Against it:
- C=C1C[C@@H]2[C@H](CC[C@]3(C)C(=O)CC[C@@H]23)[C@@]2(C)C=CC(=O)C=C12 [Exemestane] — within error, 102 ± 12
- COc1cc([C@@H]2c3cc4c(cc3[C@@H](O[C@@H]3O[C@@H]5CO[C@@H](c6cccs6)O[C@H]5[C@H](O)[C@H]3O)[C@H]3COC(=O)[C@H]23)OCO4)cc(OC)c1O [Teniposide] — lower, 15.9 ± 0.19
- COc1cccc2cc(-c3nc([C@H]4CC[C@H](C(=O)O)CC4)n4ncnc(N)c34)[nH]c12 [OSI027] — lower, 27.8 ± 6.2
- CN(C)C/C=C/C(=O)Nc1cc2c(Nc3ccc(F)c(Cl)c3)ncnc2cc1O[C@H]1CCOC1 [Afatinib] — lower, 10.8 ± 1.1
- Cc1cnc(-c2cnc(NCCNc3ccc(C#N)cn3)nc2-c2ccc(Cl)cc2Cl)[nH]1 — within error, 85.9 ± 40
- O=C(O)CC[C@H]1CC[C@@](c2cc(F)ccc2F)(S(=O)(=O)c2ccc(Cl)cc2)CC1 [MK0752] — within error, 111 ± 27
- CC[C@H](C)C(=O)O[C@H]1C[C@@H](C)C=C2C=C[C@H](C)[C@H](CC[C@@H]3C[C@@H](O)CC(=O)O3)[C@H]21 [Lovastatin] — lower, 78.4 ± 22
- NC(=O)Nc1sc(-c2ccc(F)cc2)cc1C(N)=O [TPCA1] — lower, 54.5 ± 1.1
- C[C@]1(c2nc3c(C(N)=O)cccc3[nH]2)CCCN1 [Veliparib] — within error, 72.7 ± 38
- COc1cc(Nc2ncc3c(n2)-c2ccc(Cl)cc2C(c2c(F)cccc2OC)=NC3)ccc1C(=O)O [Alisertib] — lower, 91.2 ± 9.5
- Cc1cc(N2CCOCC2)cc2[nH]c(-c3c(NC[C@@H](O)c4cccc(Cl)c4)cc[nH]c3=O)nc12 — lower, 60.3 ± 12
- Cc1ccc(S(=O)(=O)OCC(=O)Nc2ccc(C(=O)O)c(O)c2)cc1 — within error, 116 ± 58
- C#Cc1cccc(Nc2ncnc3cc(OCCOC)c(OCCOC)cc23)c1 [Erlotinib] — lower, 43.6 ± 8.1
- Cc1ccc(C(=O)N(CCCN)[C@@H](c2oc3cc(Cl)ccc3c(=O)c2Cc2ccccc2)C(C)C)cc1 — lower, 5.26 ± 4.4
- CS(=O)(=O)N1CCN(Cc2cc3nc(-c4cccc5[nH]ncc45)nc(N4CCOCC4)c3s2)CC1 [GDC0941] — lower, 35.6 ± 8.4
- Cc1nc(Nc2n[nH]c3c2CN(C(=O)N[C@H](CN(C)C)c2ccccc2)C3(C)C)c2sccc2n1 — lower, 3.5 ± 2.2
- C=CCc1cccc(/C=N/NC(=O)CN2CCN(Cc3ccccc3)CC2)c1O [PAC1] — lower, 32.5 ± 11
- COc1cc2nccc(Oc3ccc(NC(=O)C4(C(=O)Nc5ccc(F)cc5)CC4)cc3)c2cc1OC [Cabozantinib] — lower, 25.8 ± 17

system: ZR-75-1; test: as above; settings: sgRNA knockout: sgNT, 1 nM
Protocol: as §1

Work on `CC(C)[C@]12O[C@H]1[C@@H]1O[C@]13[C@]1(O[C@H]1C[C@H]1C4=C(CC[C@@]13C)C(=O)OC4)[C@@H]2O` [Triptolide] yielded a relative cell number of 71.2 ± 23.

same assay, conditions: sgRNA knockout: sgNT, 10 nM

Point of comparison: `C=C1C[C@@H]2[C@H](CC[C@]3(C)C(=O)CC[C@@H]23)[C@@]2(C)C=CC(=O)C=C12` [Exemestane], relative cell number 123 ± 22. Against it:
- CC(C)(C)OC(=O)CN(Cc1ccc(Cl)cc1)Cc1ccc([N+](=O)[O-])s1 [GSK4112] — within error, 100 ± 4.8
- COc1cc([C@@H]2c3cc4c(cc3[C@@H](O[C@@H]3O[C@@H]5CO[C@@H](c6cccs6)O[C@H]5[C@H](O)[C@H]3O)[C@H]3COC(=O)[C@H]23)OCO4)cc(OC)c1O [Teniposide] — lower, 55.8 ± 2.6
- COc1cccc2cc(-c3nc([C@H]4CC[C@H](C(=O)O)CC4)n4ncnc(N)c34)[nH]c12 [OSI027] — within error, 81.1 ± 21
- CN(C)C/C=C/C(=O)Nc1cc2c(Nc3ccc(F)c(Cl)c3)ncnc2cc1O[C@H]1CCOC1 [Afatinib] — within error, 103 ± 7.7
- Cc1cnc(-c2cnc(NCCNc3ccc(C#N)cn3)nc2-c2ccc(Cl)cc2Cl)[nH]1 — within error, 104 ± 21
- O=C(O)CC[C@H]1CC[C@@](c2cc(F)ccc2F)(S(=O)(=O)c2ccc(Cl)cc2)CC1 [MK0752] — within error, 120 ± 36
- CC[C@H](C)C(=O)O[C@H]1C[C@@H](C)C=C2C=C[C@H](C)[C@H](CC[C@@H]3C[C@@H](O)CC(=O)O3)[C@H]21 [Lovastatin] — within error, 138 ± 33
- NC(=O)Nc1sc(-c2ccc(F)cc2)cc1C(N)=O [TPCA1] — within error, 104 ± 42
- C[C@]1(c2nc3c(C(N)=O)cccc3[nH]2)CCCN1 [Veliparib] — within error, 88.9 ± 56
- COc1cc(Nc2ncc3c(n2)-c2ccc(Cl)cc2C(c2c(F)cccc2OC)=NC3)ccc1C(=O)O [Alisertib] — within error, 82.4 ± 36
- Cc1cc(N2CCOCC2)cc2[nH]c(-c3c(NC[C@@H](O)c4cccc(Cl)c4)cc[nH]c3=O)nc12 — within error, 78.8 ± 51
- Cc1ccc(S(=O)(=O)OCC(=O)Nc2ccc(C(=O)O)c(O)c2)cc1 — within error, 91.2 ± 35
- CC(C)[C@]12O[C@H]1[C@@H]1O[C@]13[C@]1(O[C@H]1C[C@H]1C4=C(CC[C@@]13C)C(=O)OC4)[C@@H]2O [Triptolide] — lower, 78 ± 18
- C#Cc1cccc(Nc2ncnc3cc(OCCOC)c(OCCOC)cc23)c1 [Erlotinib] — within error, 99 ± 27
- Cc1ccc(C(=O)N(CCCN)[C@@H](c2oc3cc(Cl)ccc3c(=O)c2Cc2ccccc2)C(C)C)cc1 — lower, 26.5 ± 2.3
- CS(=O)(=O)N1CCN(Cc2cc3nc(-c4cccc5[nH]ncc45)nc(N4CCOCC4)c3s2)CC1 [GDC0941] — within error, 94.4 ± 15
- Cc1nc(Nc2n[nH]c3c2CN(C(=O)N[C@H](CN(C)C)c2ccccc2)C3(C)C)c2sccc2n1 — lower, 40.4 ± 14
- C=CCc1cccc(/C=N/NC(=O)CN2CCN(Cc3ccccc3)CC2)c1O [PAC1] — within error, 99.5 ± 9.9
- COc1cc2nccc(Oc3ccc(NC(=O)C4(C(=O)Nc5ccc(F)cc5)CC4)cc3)c2cc1OC [Cabozantinib] — within error, 132 ± 14

same assay, conditions: sgRNA knockout: sgNT, 100 nM

Point of comparison: `C=C1C[C@@H]2[C@H](CC[C@]3(C)C(=O)CC[C@@H]23)[C@@]2(C)C=CC(=O)C=C12` [Exemestane], relative cell number 82.5 ± 26. Against it:
- CC(C)(C)OC(=O)CN(Cc1ccc(Cl)cc1)Cc1ccc([N+](=O)[O-])s1 [GSK4112] — higher, 148 ± 35
- COc1cc([C@@H]2c3cc4c(cc3[C@@H](O[C@@H]3O[C@@H]5CO[C@@H](c6cccs6)O[C@H]5[C@H](O)[C@H]3O)[C@H]3COC(=O)[C@H]23)OCO4)cc(OC)c1O [Teniposide] — lower, 31.4 ± 6.7
- COc1cccc2cc(-c3nc([C@H]4CC[C@H](C(=O)O)CC4)n4ncnc(N)c34)[nH]c12 [OSI027] — within error, 94.9 ± 17
- CN(C)C/C=C/C(=O)Nc1cc2c(Nc3ccc(F)c(Cl)c3)ncnc2cc1O[C@H]1CCOC1 [Afatinib] — within error, 72.2 ± 40
- Cc1cnc(-c2cnc(NCCNc3ccc(C#N)cn3)nc2-c2ccc(Cl)cc2Cl)[nH]1 — within error, 85.3 ± 13
- O=C(O)CC[C@H]1CC[C@@](c2cc(F)ccc2F)(S(=O)(=O)c2ccc(Cl)cc2)CC1 [MK0752] — within error, 88.2 ± 30
- CC[C@H](C)C(=O)O[C@H]1C[C@@H](C)C=C2C=C[C@H](C)[C@H](CC[C@@H]3C[C@@H](O)CC(=O)O3)[C@H]21 [Lovastatin] — within error, 67.2 ± 6.6
- NC(=O)Nc1sc(-c2ccc(F)cc2)cc1C(N)=O [TPCA1] — within error, 94.7 ± 6
